# Laboratory results published in US8865909B2, “Anti-biofilm agents” (Yissum Research Development Company of the Hebrew …, priority 2008, dated 2014).
# Experiments:
# V. harveyi biofilm = test: Quorum sensing (luminescence) in mature biofilm; assay type: cell-based; parameters: reduction of QS: dose or concentration left out as unconfirmed; conditions: for reduction of QSI: maximal tested concentration
# Description: The working protocol for the biofilm disruption assays were conducted as follows. The tested V. harveyi strains (BB120, BB721, BB170, BB886) were grown to cell density of 1.5-2.5×10^9 CFU/ml (15-16 hrs) in AB medium at 30° C. with constant shaking and the suspension was diluted (1:5,000) in fresh AB medium. Aliquot of the suspension (200 μl) was added to each well in a white 96-well plate (NUNC) and incubated for 18 hours at 30° C. without shaking. The formed biofilm was carefully washed twice with saline. Fresh AB medium containing the exemplary ABF agent at the various tested concentrations, and either 10% (v/v) spent medium of V. harveyi MM30 (containing AI-1) or 10% (v/v) spent medium of V. harveyi BB152 (containing AI-2) were added, for further 18 hours of incubation as described above. Each sample was also tested without the spent medium as control to examine self induction. Positive and negative controls were included as described above. Each sample was tested in three separate biological experiments in triplicate samples. Luminescence was calculated as the AUC using the trapezoid rule.
# MDCK cells [1] = test: MDCK cells detachment assay; assay type: cell-based, canine
# Description: (§1) Madine-Derby canine kidney cells (MDCK) are a non-cancerous, polarized epithelial cell line, used in the research of cell polarity mechanisms, and in the research of pathogen interactions with epithelial tissues. These cells produce monolayers in which cells are polarized and tightly connected to each other. The cells were treated with TZD10 for 40 minutes without the XTT reagents that were then added for further 120 minutes incubation. The influence of TZD10 on the attachment of MDCK cells was investigated using an identical method used for the Vero cells (the 96 well polystyrene plate method) as presented hereinabove.
# Vero cells = Vero cells detachment assay (96-well polystyrene plate, XTT); assay type: cell-based
# Description: Vero cells (0.1 ml, 1.6×10^6 cells/ml) were plated in each well of flat 96-wells polystyrene plate (Nunc), and incubated overnight at 37° C. and 5% CO2. The cells were then incubated with various concentrations of the exemplary tested ABF agent TZD10. At the indicated time intervals, the cells were washed and re-suspended in fresh medium. XTT (2,3-bis-(2-methoxy-4-nitro-5-sulfophenyl)-2H-tetrazolium-5-carboxanilide) analysis was performed to determine the viability of the attached cells.
# V. harveyi strains = test: Quorum sensing inhibition (luminescence), planktonic conditions; assay type: cell-based; conditions: BB120, BB170, BB886, BB721, JAF375, with AI-1, AI-2 or AI-0 spent medium
# Description: Mutant strains of V. harveyi, which are impaired at different locations of the quorum sensing (QS) cascade (see, Table 1 hereinabove) were used for the QSI assays. Bacteria were grown to cell density of 1.5-2.5×10^9 CFU/ml (15-16 hours) in AB medium at 30° C. with constant shaking. The fresh cultures were then diluted 5000-fold in fresh AB medium containing TZD10, an exemplary ABF agent according to embodiments of the present invention, at concentrations of 0.02, 0.2, 20 and 200 μM. […]
# The assay was conducted in white 96-well microtitraton plates with a clear bottom (NUNC, Denmark). Luminescence was measured continuously by a GENios reader (TECAN, Austria) every 30 minutes and the bacterial density was determined (O.D. 595 nm).
# Each sample was tested in three separate biological experiments, each conducted in triplicate samples. The effect of the ABF agent was determined relatively to the endogenous level of luminescence expressed by V. harveyi BB120, BB721, BB170, BB886 and JAF375 relative to the OD, by calculating the area under the curve (AUC) between 3.5-7 hours, applying the trapezoid rule for AUC calculation.
# [2] = system: V. harveyi wild-type strain (BB120) matured biofilms; test: Biofilm disruption by confocal scanning laser microscopy; assay type: cell-based; conditions: 2, 20, 200 μM (lower than MIC), 18 hours
# Description: The biofilm eradication concentration (BEC) for exemplary ABF agents according to embodiments of the present invention was measured as the effect of the tested agent on mature and fully formed biofilm. The effect of TZD10, an exemplary ABF agent according to embodiments of the present invention, on the depth and the density of the biofilm was determined using fluorescent stains analyzed by computer image analysis using confocal scanning laser microscopy (CLSM). Briefly, biofilms were allowed to form in sterile micrtiture dishes as described hereinabove. After washing the formed biofilm, fresh AB medium and an appropriate medium containing TZD10 were added and incubated for additional 18 hours. Bacteria in biofilm were stained with fluorescent dyes to detect the biofilm. The stained biofilms were examined with a Zeiss LSM 410 confocal laser scanning system attached to a Zeiss Axiovert inverted microscope fitted with a 40×/1.3 Plan-Neofluar lens. In each experiment, exciting laser intensity, background level, contrast and electronic zoom size were maintained at the same level. At least 3 random fields for each experiment were chosen and scored from each sample. Biofilm structure was analyzed as a series of horizontal opto-digital sections. […]
# MDCK cells [3] = test: MDCK cells viability assay (XTT); assay type: cell-based, canine; conditions: 40 minutes + 120 minutes with XTT
# Description: as §1
smiles,measurement,setting,value
"CCCCCCCCC/C=C1\SC(=O)NC1=O [TZD10, (Z)-5-decylidenethiazolidine-2,4-dione]",reduction of QSI activity,"V. harveyi biofilm; AI-1 spent medium, 0.200 μM, BB886",39%
same,reduction of QSI activity,"V. harveyi biofilm; AI-1 spent medium, 0.200 μM, wild-type",62%
same,reduction of QS activity,"V. harveyi biofilm; AI-1 spent medium, 2 μM, BB886",10%
same,reduction of QS activity,"V. harveyi biofilm; AI-1 spent medium, 2 μM, wild type BB120",18%
same,change in QSI,"V. harveyi biofilm; AI-2 spent medium, 2 μM, BB170",minor increase
same,reduction of QSI activity,"V. harveyi biofilm; AI-2 spent medium, 2 μM, BB721 (LuxO null)",25%
same,change in QSI,"V. harveyi biofilm; AI-2 spent medium, 2 μM, wild-type BB120",minor increase
same,reduction of QSI,"V. harveyi biofilm; AI-2 spent medium, BB170",44%
same,reduction of QSI,"V. harveyi biofilm; AI-2 spent medium, BB721",72%
same,reduction of QSI,"V. harveyi biofilm; AI-2 spent medium, wild-type",35%
same,QS inhibition versus concentration,"V. harveyi biofilm; all tested strains, mature biofilm",positive dose response
same,effect on QS,"V. harveyi biofilm; no AI-1 nor AI-2, BB170, 2 μM",no effect
same,reduction of QS,"V. harveyi biofilm; no AI-1 nor AI-2, BB170, highest tested concentration",62%
same,reduction of QSI activity,"V. harveyi biofilm; no AI-1 nor AI-2, BB721, 2 μM",38%
same,reduction of QSI activity,"V. harveyi biofilm; no AI-1 nor AI-2, BB721, 20 μM",63%
same,reduction of QSI activity,"V. harveyi biofilm; no AI-1 nor AI-2, BB721, 200 μM",79%
same,reduction of QSI activity,"V. harveyi biofilm; no AI-1 nor AI-2, BB886, 2 μM",30%
same,reduction of QSI activity,"V. harveyi biofilm; no AI-1 nor AI-2, BB886, 200 μM",40%
same,cell detachment from the polystyrene dish,MDCK cells [1],detached
same,time of detachment compared with Vero cells,MDCK cells [1],observed sooner than it has been observed with Vero cells
same,cell viability after detachment assay,"Vero cells; 50 μg/ml, overnight incubation",most of the cells are still viable
same,cell detachment,"Vero cells; 100 μg/ml, 30 minutes",most of the cells were detached
same,cell detachment,"Vero cells; 200 μg/ml, 5 minutes",most of the cells were detached
same,effect on quorum sensing (luminescence),V. harveyi strains,classic dose-response curve
same,biofilm disruption,[2],dose response effect of biofilm disruption
same,toxicity compared with Vero cells,MDCK cells [3],more toxic to MDCK cells than to Vero cells
